In ChEMBL document CHEMBL1649576, “Emergence of extended-spectrum beta-lactamase PER-1 in Proteus vulgaris and Providencia stuartii isolates from Algiers, Algeria” (2009) one finds MIC data, which are given here for five molecules.

Usually MIC stands for the lowest concentration found to suppress growth. High values mean weaker potency, low ones greater potency.

Values after ≈ are worked out from the molar mass of the structure shown.

What all share (assay type): functional
The subject of assay [1] is Proteus vulgaris. Kind of assay: Antimicrobial activity against Proteus vulgaris Pv8 expressing beta-lactamase PER-1 by […].
The test system of assay [2] is Proteus vulgaris. As to the kind of experiment: Antimicrobial activity against Proteus vulgaris Pv9 expressing beta-lactamase PER-1 by […].
In assay [3] the test system is Providencia stuartii. Kind of assay: Antimicrobial activity against Providencia stuartii Ps5 expressing beta-lactamase PER-1 by […].
Assay [4] concerns Escherichia coli. As to the kind of experiment: Antimicrobial activity against rifampin-resistant Escherichia coli J53 transconjugated with Proteus vulgaris Pv5 expressing beta-lactamase PER-1 by […].
Assay [5] deals with Escherichia coli. As to the kind of experiment: Antimicrobial activity against rifampin-resistant Escherichia coli J53 transconjugated with Proteus vulgaris Pv7 expressing beta-lactamase PER-1 by […].
The test system of assay [6] is Escherichia coli. Kind of assay: Antimicrobial activity against rifampin-resistant Escherichia coli J53 transconjugated with Proteus vulgaris Pv8 expressing beta-lactamase PER-1 by […]. A general note: A growth-free zone around the sample is the usual read-out of agar diffusion tests.
The test system of assay [7] is Escherichia coli. Kind of assay: Antimicrobial activity against rifampin-resistant Escherichia coli J53 transconjugated with Proteus vulgaris Pv9 expressing beta-lactamase PER-1 by […].
In assay [8] the test system is Escherichia coli. As to the kind of experiment: Antimicrobial activity against rifampin-resistant Escherichia coli J53 transconjugated with Providencia stuartii Ps5 expressing beta-lactamase PER-1 by […].
Assay [9] deals with Proteus vulgaris. Kind of assay: Antimicrobial activity against Proteus vulgaris Pv5 expressing beta-lactamase PER-1 by Etest.
Assay [10] concerns Proteus vulgaris. As to the kind of experiment: Antimicrobial activity against Proteus vulgaris Pv7 expressing beta-lactamase PER-1 by Etest.
Assay [11] deals with Proteus vulgaris. As to the kind of experiment: Antimicrobial activity against Proteus vulgaris Pv8 expressing beta-lactamase PER-1 by Etest.
For assay [12], the system named is Proteus vulgaris. As to the kind of experiment: Antimicrobial activity against Proteus vulgaris Pv9 expressing beta-lactamase PER-1 by Etest.
In assay [13] the test system is Providencia stuartii. Kind of assay: Antimicrobial activity against Providencia stuartii Ps5 expressing beta-lactamase PER-1 by Etest.
Assay [14] relates to Escherichia coli. As to the kind of experiment: Antimicrobial activity against rifampin-resistant Escherichia coli J53 transconjugated with Proteus vulgaris Pv5 expressing beta-lactamase PER-1 by Etest.
Assay [15] relates to Escherichia coli. Kind of assay: Antimicrobial activity against rifampin-resistant Escherichia coli J53 transconjugated with Proteus vulgaris Pv7 expressing beta-lactamase PER-1 by Etest.
Assay [16] relates to Escherichia coli. Kind of assay: Antimicrobial activity against rifampin-resistant Escherichia coli J53 transconjugated with Proteus vulgaris Pv8 expressing beta-lactamase PER-1 by Etest.
Assay [17] deals with Escherichia coli. Kind of assay: Antimicrobial activity against rifampin-resistant Escherichia coli J53 transconjugated with Proteus vulgaris Pv9 expressing beta-lactamase PER-1 by Etest.
Assay [18] has as its system Escherichia coli. Kind of assay: Antimicrobial activity against rifampin-resistant Escherichia coli J53 transconjugated with Providencia stuartii Ps5 expressing beta-lactamase PER-1 by Etest.
The test system of assay [19] is Proteus vulgaris. As to the kind of experiment: Antimicrobial activity against Proteus vulgaris Pv5 expressing beta-lactamase PER-1 by […].
Assay [20] relates to Proteus vulgaris. Kind of assay: Antimicrobial activity against Proteus vulgaris Pv7 expressing beta-lactamase PER-1 by […].

Consider `CO/N=C(\C(=O)N[C@@H]1C(=O)N2C(C(=O)O)=C(COC(C)=O)CS[C@H]12)c1csc(N)n1` [CEFOTAXIME], for which the minimal inhibitory concentration (MIC) in assay [1] amounted to 32 µg/mL (≈ 70.3 µM); in [2], 32 µg/mL (≈ 70.3 µM); in [3] it was 32 µg/mL (≈ 70.3 µM); in assay [4] it was 32 µg/mL (≈ 70.3 µM); in assay [5], 32 µg/mL (≈ 70.3 µM); in [6], 16 µg/mL (≈ 35.1 µM). For the same molecule, the MIC in assay [7], in assay [8], in assay [9], in [10], in [11] and in [12] was 32 µg/mL (≈ 70.3 µM) in each case. Moreover, the minimal inhibitory concentration (MIC) turned out to be 32 µg/mL (≈ 70.3 µM) in assay [13]; 32 µg/mL (≈ 70.3 µM) in [14]; 31 µg/mL (≈ 68.1 µM) in [15]; 16 µg/mL (≈ 35.1 µM) in [16]; 32 µg/mL (≈ 70.3 µM) in assay [17]; 32 µg/mL (≈ 70.3 µM) in [18]. Also, the MIC in assay [19] and in [20] was 32 µg/mL (≈ 70.3 µM) each time.

For the molecule `CCN1CCN(C(=O)N[C@@H](C(=O)N[C@@H]2C(=O)N3[C@@H]2SC(C)(C)[C@@H]3C(=O)O)c2ccccc2)C(=O)C1=O` [PIPERACILLIN], the MIC was found to be 16 µg/mL (≈ 30.9 µM) in assay [1]; 32 µg/mL (≈ 61.8 µM) in [2]; 32 µg/mL (≈ 61.8 µM) in [3]; 16 µg/mL (≈ 30.9 µM) in [4]; 32 µg/mL (≈ 61.8 µM) in assay [5]; 16 µg/mL (≈ 30.9 µM) in assay [6]. The MIC in assay [7] amounted to 32 µg/mL (≈ 61.8 µM); in assay [8], 32 µg/mL (≈ 61.8 µM); in assay [9], 16 µg/mL (≈ 30.9 µM); in [10] it was 32 µg/mL (≈ 61.8 µM); in [11], 16 µg/mL (≈ 30.9 µM); in assay [12] it was 32 µg/mL (≈ 61.8 µM). Also, the MIC in [13] turned out to be 32 µg/mL (≈ 61.8 µM); in assay [14] it was 16 µg/mL (≈ 30.9 µM); in assay [15] it was 32 µg/mL (≈ 61.8 µM); in assay [16] it was 16 µg/mL (≈ 30.9 µM); in assay [17], 32 µg/mL (≈ 61.8 µM); in assay [18], 32 µg/mL (≈ 61.8 µM). Further, the minimal inhibitory concentration (MIC) in assay [19] worked out at 16 µg/mL (≈ 30.9 µM); in assay [20], 32 µg/mL (≈ 61.8 µM).

Take `CC(C)(O/N=C(\C(=O)N[C@@H]1C(=O)N2C(C(=O)[O-])=C(C[n+]3ccccc3)CS[C@H]12)c1csc(N)n1)C(=O)O` [CEFTAZIDIME]: the minimum inhibitory concentration (MIC) in [1], in assay [2], in assay [3], in [4], in assay [5] and in assay [6] was > 256 µg/mL each time. The MIC in assay [7], in assay [8], in assay [9], in assay [10], in assay [11] and in assay [12] was > 256 µg/mL throughout. Further, the minimum inhibitory concentration (MIC) in assay [13], in [14], in [15], in [16], in assay [17] and in assay [18] was > 256 µg/mL throughout. Also, the minimum inhibitory concentration (MIC) in assay [19] and in [20] was > 256 µg/mL each time.

Turning to `C[C@@H](O)[C@H]1C(=O)N2C(C(=O)O)=C(SCCNC=N)C[C@H]12` [IMIPENEM ANHYDROUS], the MIC in assay [1] is 1 µg/mL (≈ 3.34 µM); in assay [2], 1 µg/mL (≈ 3.34 µM); in assay [3], 2 µg/mL (≈ 6.68 µM); in assay [4], 0.25 µg/mL (≈ 0.835 µM); in [5], 0.125 µg/mL (≈ 0.418 µM); in assay [6] it was 0.125 µg/mL (≈ 0.418 µM). In addition, the MIC in [7] came out at 0.25 µg/mL (≈ 0.835 µM); in [8], 0.125 µg/mL (≈ 0.418 µM); in assay [9], 1 µg/mL (≈ 3.34 µM); in assay [10], 1 µg/mL (≈ 3.34 µM); in assay [11], 1 µg/mL (≈ 3.34 µM); in [12] it was 1 µg/mL (≈ 3.34 µM). Moreover, the MIC in assay [13] came out at 2 µg/mL (≈ 6.68 µM); in assay [14], 0.25 µg/mL (≈ 0.835 µM); in [15], 0.125 µg/mL (≈ 0.418 µM); in assay [16], 0.125 µg/mL (≈ 0.418 µM); in assay [17], 0.25 µg/mL (≈ 0.835 µM); in assay [18], 0.125 µg/mL (≈ 0.418 µM). Also, the minimum inhibitory concentration (MIC) in assay [19] and in assay [20] was 1 µg/mL (≈ 3.34 µM) throughout.

For `CO/N=C(\C(=O)N[C@@H]1C(=O)N2C(C(=O)[O-])=C(C[N+]3(C)CCCC3)CS[C@H]12)c1csc(N)n1` [CEFEPIME], the MIC in assay [1] came to 32 µg/mL (≈ 66.6 µM); in assay [2] it was 8 µg/mL (≈ 16.6 µM); in assay [3], 8 µg/mL (≈ 16.6 µM); in assay [4], 16 µg/mL (≈ 33.3 µM); in assay [6] it was 8 µg/mL (≈ 16.6 µM); in [7], 8 µg/mL (≈ 16.6 µM). Further, the MIC in assay [9] was 32 µg/mL (≈ 66.6 µM); in [10], 16 µg/mL (≈ 33.3 µM); in [11], 32 µg/mL (≈ 66.6 µM); in assay [12], 8 µg/mL (≈ 16.6 µM); in assay [13] it was 8 µg/mL (≈ 16.6 µM); in assay [14], 16 µg/mL (≈ 33.3 µM). For the same molecule, the MIC in assay [16] worked out at 8 µg/mL (≈ 16.6 µM); in [17], 8 µg/mL (≈ 16.6 µM); in [19], 32 µg/mL (≈ 66.6 µM); in assay [20] it was 16 µg/mL (≈ 33.3 µM).
